Where a name gives a salt, the structure may show the parent alone. Read-outs that look alike come from different tables or passages of the source. Some results are limits rather than exact numbers.

In general, IC50 refers to the concentration that gives 50% inhibition. Broadly, the Km is the concentration of substrate that gives half-maximal velocity.

For data set [1], the target named is p38α produced and activated in human cells (Homo sapiens, UniProt Q16539). In words: Kinase inhibitor IC50 determination with p38α produced in human cells. Type of data set: biochemical. The following applies: read-out: IC50, Human Cell.
In data set [2] the target is p38α expressed in E. coli, Vendor A, in vitro activated by MKK6 (Homo sapiens, UniProt Q16539). Nature of the data set: Kinase inhibitor IC50 determination with E. coli p38α (Vendor A, E coli-I). Type of data set: biochemical.
For data set [3], the target named is p38α expressed in E. coli, Vendor B, in vitro activated by MKK6 (Homo sapiens, UniProt Q16539). Nature of the data set: Kinase inhibitor IC50 determination with E. coli p38α (Vendor B, E coli-II). The data set is classed as biochemical.
Data set [4] relates to whole CD4+ cells from a healthy donor. In words: Th17 polarizing cytokines: IL-17 secretion from human CD4+ cells (ELISA). The data set is classed as cell-based. The following applies: for induction of IL-17 secretion: compared with cytokines from insect cell or bacterial expression system, 5 days; for Th17 cell polarization: separate study, same condition. From the text: IL-17-producing CD4+ T cells (Th-17 cells) have been identified as a unique subset of Th cells that develop along a pathway that is distinct from the Th1, and Th2-cell differentiation pathways. This finding has provided exciting new insights into immunoregulation, host defense and the pathogenesis of autoimmune diseases. Recently it has been shown that IL1β, IL6 and IL23 are important in driving human Th17 differentiation. However, TGF-β1, which is important for the differentiation of murine Th17 cells, is reported to be not required, and even inhibits human Th17 differentiation (McGeachy & Cua (2008) Immunity 28:445, Chen & O'Shea (2008) Cytokines 41:71). In this study, whole […] cells isolated from a healthy donor were stimulated with 10 μg/mL plate bound anti-CD3 and 10 μg/ml soluble anti-CD28 in the presence of Th17 polarizing cytokines from the inventive human cell expression system and from an insect cell or bacterial expression system. After 5 days supernatants were harvested for measurement of IL-17 by ELISA.

Data set [5] deals with human TF-1 cells. In words: IL-4 bioactivity: dose-dependent stimulation of proliferation of TF-1 cells. The data set is classed as cell-based. The settings on record: TF-1 cell proliferation.
Data set [6] can be described thus: Km.ATP of p38α preparations. Type of data set: biochemical.
In data set [7] the test system is human umbilical vein endothelial cells. Nature of the data set: VEGF165 bioactivity: proliferation of human umbilical vein endothelial cells. Type of data set: cell-based. The settings on record: HUVEC proliferation.
The subject of data set [8] is human CD4+ T cells. In words: IL-23 activity: IL-17 secretion from human CD4+ T cells (ELISA). The data set is classed as cell-based. The following applies: human CD4+ cells, 5 days. As to the method: (A) IL-23 activities determined by the dose-dependent secretion of IL-17 from mouse splenocytes activated with 10 ng/ml PMA. (B) IL-23 activities determined by the dose-dependent secretion of IL-17 from human CD4+ T cells stimulated with […] plate bound anti-CD3 and […] soluble anti-CD28 in the presence of Th17 polarizing cytokines.
FIG. 22: Efficient differentiation of Th17 cells with authentic cytokines expressed in human cells. Whole CD4+ T cells isolated from a healthy donor were stimulated with 2 μg/mL plate bound anti-CD3 and 1 μg/mL soluble anti-CD28 in the presence of Th17 polarizing cytokines, including a titration of IL-23. After 5 days, supernatants were harvested for measurement of IL-17 by ELISA. See (A)-(G). FIG. 22 (H) depicts flow cytometry analysis on Human Th17 Differentiation by Authentic human TGF-β1. See Example 17 below.
IL-17-producing CD4+ T cells (Th17 cells) have been identified as a unique subset of T helper cells that develop along a pathway that is distinct from the Th1 and Th2-cell differentiation pathways. This finding has provided exciting new insights into immunoregulation, host defense and the pathogenesis of autoimmune diseases. Recently it has been shown that TGF-β1, […], IL-6 and IL-23 are important in driving human Th17 differentiation (Chen & O'Shea (2008) Cytokines 41:71). […] The activities were further assayed with human CD4+ cells which were isolated from a healthy donor and stimulated with 10 μg/ml plate bound anti-CD3 and 10 μg/ml soluble anti-CD28 in the presence of Th17 polarizing cytokines. After 5 days supernatants were harvested for measurement of IL-17 by ELISA.
On the technique in general: In an ELISA, binding on a coated surface is turned into a signal by an enzyme label.

Data set [9] relates to human embryonic stem (hES) cells. Nature of the data set: Oct3/4 expression in Noggin-treated human embryonic stem cells (Western blot). Type of data set: cell-based. The following applies: 10 pg/ml and 20 pg/ml treatment. (In western blotting, separated proteins are transferred to a membrane and probed.)
[10] abbreviates: p38α from E. coli, Vendor A, read-out: IC50, E coli-I.
The mark [11] stands for this setting: p38α from E. coli, Vendor B, read-out: IC50, E coli-II.

p38α produced and activated in human cells, sequence (Q16539 whole entry): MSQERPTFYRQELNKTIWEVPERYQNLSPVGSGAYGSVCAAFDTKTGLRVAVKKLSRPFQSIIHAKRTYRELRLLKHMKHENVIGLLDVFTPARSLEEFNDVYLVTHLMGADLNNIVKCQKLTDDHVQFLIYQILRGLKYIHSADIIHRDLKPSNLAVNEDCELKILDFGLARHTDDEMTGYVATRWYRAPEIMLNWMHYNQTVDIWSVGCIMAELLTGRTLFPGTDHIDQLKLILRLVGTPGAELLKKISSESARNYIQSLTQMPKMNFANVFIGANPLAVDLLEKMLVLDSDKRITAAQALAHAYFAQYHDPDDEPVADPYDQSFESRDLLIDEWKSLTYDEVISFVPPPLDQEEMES
p38α expressed in E. coli, Vendor A, in vitro activated by MKK6, sequence (Q16539 whole entry): as above
p38α expressed in E. coli, Vendor B, in vitro activated by MKK6, sequence (Q16539 whole entry): as above

In the case of `COC(=O)[C@@]1(O)C[C@H]2O[C@]1(C)n1c3ccccc3c3c4c(c5c6ccccc6n2c5c31)C(=O)NC4` [K252a], the results for the IC50 in [1], in [2] and in [3] were 0.005 µM, more than 10 µM and more than 10 µM, respectively.
Turning to “IL1β: recombinantly-produced, authentic human IL1β from the human cell expression system”, the “induction of IL-17 secretion” value in data set [4] was “significantly more effective”.
Take `CC(=O)c1c(O)c(C)c(O)c(Cc2c(O)c3c(c(C(=O)/C=C/c4ccccc4)c2O)OC(C)(C)C=C3)c1O` [Rottlerin]: the IC50 in [1], in [2] and in data set [3] was more than 200 µM throughout.
Regarding “IL4: IL4 from human cells, glycosylated major band of 19 kD; SEQ ID NO: 22”, the “fold higher potency than the E. coli expressed cytokine” value in data set [5] was found to be 4 fold.
Turning to `Cn1cc(C2=C(c3cn(CCCSC(=N)N)c4ccccc34)C(=O)NC2=O)c2ccccc21` [Ro 31-8220], the values for the IC50 in data set [1] (p38α produced in human cells), in [2] (setting [10]) and in data set [3] (setting [11]) were 9.9 µM, more than 10 µM and more than 10 µM, respectively.
“Vendor preparation: p38α from Vendor A, expressed and purified from E. coli, in vitro activated by MKK6”: the Km in data set [6] stood at 212 ± 26 µM.
Consider `NCCNS(=O)(=O)c1cccc2cnccc12` [H-9 dihydrochloride], for which the IC50 in data set [1] (p38α produced in human cells), in data set [2] (setting [10]) and in data set [3] (setting [11]) was more than 10 µM each time.
In the case of `CN(C)C[C@H]1CCn2c(c(C3=C(c4cn(C)c5ccccc45)C(=O)NC3=O)c3ccccc32)C1` [Ro 32-0432], the IC50 in data set [1] (p38α produced in human cells), in data set [2] (setting [10]) and in data set [3] (setting [11]) was more than 10 µM each time.
With `O=S(=O)(NCCNC/C=C/c1ccc(Br)cc1)c1cccc2cnccc12` [H89 Dihydrochloride], the IC50 in [1] (p38α produced in human cells), in [2] (setting [10]) and in data set [3] (setting [11]) was more than 10 µM throughout.
With “TGF-β1 from insect cells: TGF-β1 cytokine from insect cells used as comparator”, the “induction of IL-17 secretion” value in data set [4] is listed as “marginal effect”.
For the molecule “Vendor B enzyme: p38α from Vendor B, expressed and purified from E. coli, in vitro activated by MKK6”, the Km in [6] turned out to be 120 µM.
For the molecule `Nc1ncnc2c1c(I)cn2[C@@H]1O[C@H](CO)[C@@H](O)[C@H]1O` [5-iodotubercidin], the IC50 is more than 10 µM in data set [1]; more than 10 µM in data set [2] (read-out: IC50, E coli-I); more than 10 µM in data set [3] (read-out: IC50, E coli-II).
For the molecule `CCCCCCOC(=O)[C@]1(O)C[C@@H]2O[C@@]1(C)n1c3ccccc3c3c4c(c5c6ccccc6n2c5c31)C(=O)NC4` [KT5720], the IC50 in data set [1] (p38α produced in human cells) is 5 µM; in data set [2] (setting [10]) it was more than 10 µM; in [3] (setting [11]), more than 10 µM.
For the molecule `CN(C)CCCn1cc(C2=C(c3c[nH]c4ccccc34)C(=O)NC2=O)c2ccccc21` [GF 109203X], the IC50 in [1], in data set [2] (setting [10]) and in data set [3] (setting [11]) was more than 10 µM in each case.
Turning to “authentic p38α: recombinantly-produced, authentic human p38a produced and activated in human cells in the presence of arsenite”, in [6], the Michaelis constant (Km) is 109 ± 12 µM.
As to `Nc1ncnc2c1ncn2[C@@H]1O[C@H](COP(=O)(O)OP(=O)(O)NP(=O)(O)O)[C@@H](O)[C@H]1O` [AMP-PNP], the IC50 in data set [1] (p38α produced in human cells) was 257 µM; in [2] (setting [10]), 1810 µM; in data set [3] (setting [11]), more than 2000 µM. Besides, in data set [2] (Vendor A preparation vs p38α from human cells), the “fold less sensitive than human cell p38α” value came to 7 fold.
Regarding “IL6: recombinantly-produced, authentic human IL6; SEQ ID NO: 16”, the “induction of IL-17 secretion” value in data set [4] is reported as “significantly more effective”.

B1: authentic human VEGF165: VEGF165 from engineered human 293 cells, glycosylated homodimer of 45 kD; SEQ ID NO: 2 (protein)
chain: APMAEGGGQNHHEVVKFMDVYQRSYCHPIETLVDIFQEYPDEIEYIFKPSCVPLMRCGGCCNDEGLECVPTEESNITMQIMRIKPHQGQHIGEMSFLQHNKCECRPKKDRARQENPCGPCSERRKHLFVQDPQTCKCSCKNTDSRCKARQLELNERTCRCDKPRR
modifications: glycosylated homodimer
For the molecule B1, the “fold more active than the E. coli expressed protein” value in data set [7] is 10 fold; in data set [7] (listed as VEGF165), 6 fold.

B2: TGF-β3: TGF-β3 from engineered human 293 cells, disulfide-linked dimer of 25 kD (protein, UniProt P10600 301-412, looked up)
Transforming growth factor …: ALDTNYCFRNLEENCCVRPLYIDFRQDLGWKWVHEPKGYYANFCSGPCPYLRSADTTHSTVLGLYNTLNPEASASPCCVPQDLEPLTILYYVGRTPKVEQLSNMVVKSCKCS
With B2, the Th17 cell polarization entry in [4] is reported as “can effectively induce Th17 cell polarization”.

B3: insect cell-produced IL-23: commercially available recombinant IL-23 from an insect cell expression system (protein, UniProt Q9NPF7 20-189; P29460 23-328, looked up)
Interleukin-23 subunit alpha: RAVPGGSSPAWTQCQQLSQKLCTLAWSAHPLVGHMDLREEGDEETTNDVPHIQCGDGCDPQGLRDNSQFCLQRIHQGLIFYEKLLGSDIFTGEPSLLPDSPVGQLHASLLGLSQLLQPEGHHWETQQIPSLSPSQPWQRLLLRFKILRSLQAFVAVAARVFAHGAATLSP
Interleukin-12 subunit beta: IWELKKDVYVVELDWYPDAPGEMVVLTCDTPEEDGITWTLDQSSEVLGSGKTLTIQVKEFGDAGQYTCHKGGEVLSHSLLLLHKKEDGIWSTDILKDQKEPKNKTFLRCEAKNYSGRFTCWWLTTISTDLTFSVKSSRGSSDPQGVTCGAATLSAERVRGDNKEYEYSVECQEDSACPAAEESLPIEVMVDAVHKLKYENYTSSFFIRDIIKPDPPKNLQLKPLKNSRQVEVSWEYPDTWSTPHSYFSLTFCVQVQGKSKREKKDRVFTDKTSATVICRKNASISVRAQDRYYSSSWSEWASVPCS
In the case of B3, in data set [8], the “concentration at which maximum induction of IL-17 secretion was achieved” value was determined as 10 ng/mL.

B4: TGF-β2: TGF-β2 from engineered human 293 cells, disulfide-linked dimer of 25 kD (protein, UniProt P61812 303-414, looked up)
Transforming growth factor …: ALDAAYCFRNVQDNCCLRPLYIDFKRDLGWKWIHEPKGYNANFCAGACPYLWSSDTQHSRVLSLYNTINPEASASPCCVSQDLEPLTILYYIGKTPKIEQLSNMIVKSCKCS
Take B4: the Th17 cell polarization result in [4] is “can effectively induce Th17 cell polarization”.

B5: authentic human Noggin: Noggin from human 293 cell expression system, glycosylated, disulfide-linked dimer; SEQ ID NO: 24 (protein)
chain: QHYLHIRPAPSDNLPLVDLIEHPDPIFDPKEKDLNETLLRSLLGGHYDPGFMATSPPEDRPGGGGGAAGGAEDLAELDQLLRQRPSGAMPSEIKGLEFSEGLAQGKKQRLSKKLRRKLQMWLWSQTFCPVLYAWNDLGSRFWPRYVKVGSCFSKRSCSVPEGMVCKPSKSVHLTVLRWRCQRRGGQRCGWIPIQYPIISECKCSC
modifications: glycosylated disulfide-linked homodimer
With B5, the “Oct3/4 expression (marker for undifferentiated hES cells)” value was “consistently expressed Oct3/4” in data set [9]; “expresses so effectively and consistently Oct3/4” in data set [9] (listed as authentic human homodimer Noggin).
